Reference: patent US20030135023A1, “Peptide structures useful for competitive modulation of dipeptidyl peptidase IV catalysis” (priority 2001, published 2003)
Values joined by “and” are separate entries in the source; they are usually repeats but may differ in a detail not shown here. Equal values may be shown once. Read-outs that look alike come from different tables or passages of the source. Square brackets hold non-standard residues; d marks the D form. Peptide text beside a SMILES is read from it. Tle = CC(C)(C)[C@H](N)C(=O)O

Molecular target: T1, plasma DP IV (Rattus norvegicus, UniProt P14740)
T1 construct: The assay mixture consisted of 80 μl reagent and 20 μl plasma; from tissue; host or cells: plasma of Wistar rats
Assay: Plasma DP IV activity after intravasal and oral administration in Wistar rats
Type: in vivo
Settings: for inhibition at 100 mg/kg: rat, Wistar rats
Description: Rats with intact catheter function were given the test substances intravasal (intraarterial) or oral, respectively, in random order (N=3 Wistar rats in each group). As positive control, […]. isoleucine thiazolidine*fumarate were administered intravasal.
After overnight fasting, 100 μl samples of heparinized arterial blood were collected at −30, −5, and 0 min into ice-cooled Eppendorf tubes (see below). The test substances were dissolved freshly in 1.0 ml saline (0.154 mol/l) and were given at 0 min either oral via a feeding tube ([…], 75 mm; Fine Science Tools, Heidelberg, Germany) or intravasal. For the intravasal route, the catheter was immediately flushed with 30 μl saline and an additional 1 ml of saline was given orally via the feeding tube.
Arterial blood samples were taken thereafter at 5, 10 (only in a limited number of experiments), 20, 40, 60 and 120 min from the carotid catheter of the conscious unrestrained rats and were always given into ice cooled Eppendorf tubes (Eppendorf-Netheler-Hinz, Hamburg, Germany) filled with 10 μl 1 M citrate buffer pH 3.0 for prevention of further hydrolysis of tripeptides by plasma DP IV activity. Eppendorf tubes were centrifuged immediately (12000 rpm for 2 min, Hettich Zentrifuge EBA 12, Tuttlingen; Germany): The plasma fractions were store on ice until analysis or were deeply frozen at −20 ° C. until analysis.
Plasma DP IV activity: The assay mixture consisted of 80 μl reagent and 20 μl plasma. Kinetic measurements of the formation of the yellow product 4-nitroaniline were performed at 390 nm for 1 min at 30° C. after 2 min pre-incubation at the same temperature. The activity was expressed as arbitrary units [AU] and DP IV activity [mU/ml].
The absolute values of plasma DP IV activity, the relative change of plasma DP IV activity and the time and extent of maximal inhibition were calculated. Data presentation included the presentation of area under the curve (AUC), which was used for evaluation of extent of inhibition of plasma DP IV activity during the two hours of observation. AUC was calculated using the trapezoidal rule.
To compare relative changes of parameters under the conditions of different initial values of DP IV activity an uniform standardised mean (values) was set up at the beginning of the test (see Figures and Tables).
Statistical evaluations were performed with Microsoft Excel® 97. All variables are presented as mean and standard deviation (SD). Treatment groups were compared by Student's t-test, within-group changes by paired t-test. Two-tailed values of p<0.05 were considered significant.

[1] = iv (intravasal) 100 mg/kg b.w., Mean
[2] = iv (intravasal) 100 mg/kg b.w., individual animals, 100 mg/kg
[3] = oral 100 mg/kg b.w., individual animals, 100 mg/kg

T1 sequence (P14740 37-767 limits assumed): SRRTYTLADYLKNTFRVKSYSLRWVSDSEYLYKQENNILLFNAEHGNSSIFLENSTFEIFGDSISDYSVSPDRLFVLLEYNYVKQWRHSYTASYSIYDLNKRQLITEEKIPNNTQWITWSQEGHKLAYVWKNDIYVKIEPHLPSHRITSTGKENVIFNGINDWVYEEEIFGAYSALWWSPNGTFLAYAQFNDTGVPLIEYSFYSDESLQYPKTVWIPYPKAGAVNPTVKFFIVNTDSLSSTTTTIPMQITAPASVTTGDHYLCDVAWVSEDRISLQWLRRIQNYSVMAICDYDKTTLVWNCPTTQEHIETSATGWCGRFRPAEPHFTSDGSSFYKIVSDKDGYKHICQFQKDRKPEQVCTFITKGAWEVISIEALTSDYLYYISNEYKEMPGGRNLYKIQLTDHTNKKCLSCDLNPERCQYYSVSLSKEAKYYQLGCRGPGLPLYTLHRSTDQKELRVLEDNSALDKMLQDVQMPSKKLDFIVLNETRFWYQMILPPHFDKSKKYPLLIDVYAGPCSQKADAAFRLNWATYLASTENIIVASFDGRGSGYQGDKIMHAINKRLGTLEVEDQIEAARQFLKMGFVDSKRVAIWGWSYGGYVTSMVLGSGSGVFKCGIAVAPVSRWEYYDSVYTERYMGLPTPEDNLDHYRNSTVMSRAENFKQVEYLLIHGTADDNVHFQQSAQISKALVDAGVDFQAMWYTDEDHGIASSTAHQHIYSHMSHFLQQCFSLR

## CC[C@H](C)[C@H](NC(=O)[C@@H]1CCCN1C(=O)[C@@H](N)C(C)(C)C)C(=O)O [t-butyl-Gly-Pro-Ile] (H-[Tle]-Pro-Ile-OH; N-terminus and C-terminus assumed)
intra-vasal 100 mg/kg b.w.
  DP IV-AUC0-120 min: −617±234 mU·min·ml^−1
Intravasal 100 mg/kg b.w., p<0.05
  plasma DP IV at 5 min: below 10 mU/ml
Iv (intravasal) 100 mg/kg b.w., 2.5 min, Mean
  Plasma DP IV activity: 19.01 mU/ml
Iv (intravasal) 100 mg/kg b.w., 2.5 min, Standardized Mean
  Plasma DP IV activity: 15.18 mU/ml
Iv (intravasal) 100 mg/kg b.w., 2.5 min, individual animals, 100 mg/kg
  Plasma DP IV activity: 15.35 mU/ml and 27.63 mU/ml and 14.04 mU/ml
Iv (intravasal) 100 mg/kg b.w., 5 min, Mean
  Plasma DP IV activity: 18.86 mU/ml
Iv (intravasal) 100 mg/kg b.w., 5 min, Standardized Mean
  Plasma DP IV activity: 15.03 mU/ml
Iv (intravasal) 100 mg/kg b.w., 5 min, individual animals, 100 mg/kg
  Plasma DP IV activity: 15.35 mU/ml and 25.00 mU/ml and 16.23 mU/ml
Iv (intravasal) 100 mg/kg b.w., 7.5 min, Mean
  Plasma DP IV activity: 21.05 mU/ml
Iv (intravasal) 100 mg/kg b.w., 7.5 min, Standardized Mean
  Plasma DP IV activity: 17.22 mU/ml
Iv (intravasal) 100 mg/kg b.w., 7.5 min, individual animals, 100 mg/kg
  Plasma DP IV activity: 17.11 mU/ml and 27.63 mU/ml and 18.42 mU/ml
Iv (intravasal) 100 mg/kg b.w., 10 min, Mean
  Plasma DP IV activity: 17.25 mU/ml
Iv (intravasal) 100 mg/kg b.w., 10 min, Standardized Mean
  Plasma DP IV activity: 13.42 mU/ml
Iv (intravasal) 100 mg/kg b.w., 10 min, individual animals, 100 mg/kg
  Plasma DP IV activity: 17.11 mU/ml and 20.18 mU/ml and 14.47 mU/ml
Iv (intravasal) 100 mg/kg b.w., 15 min, Mean
  Plasma DP IV activity: 15.50 mU/ml
Iv (intravasal) 100 mg/kg b.w., 15 min, Standardized Mean
  Plasma DP IV activity: 11.67 mU/ml
Iv (intravasal) 100 mg/kg b.w., 15 min, individual animals, 100 mg/kg
  Plasma DP IV activity: 14.47 mU/ml and 18.42 mU/ml and 13.60 mU/ml
Iv (intravasal) 100 mg/kg b.w., 20 min, Mean
  Plasma DP IV activity: 18.71 mU/ml
Iv (intravasal) 100 mg/kg b.w., 20 min, Standardized Mean
  Plasma DP IV activity: 14.88 mU/ml
Iv (intravasal) 100 mg/kg b.w., 20 min, individual animals, 100 mg/kg
  Plasma DP IV activity: 15.35 mU/ml (2×) and 25.44 mU/ml
Iv (intravasal) 100 mg/kg b.w., 40 min, Mean
  Plasma DP IV activity: 17.98 mU/ml
Iv (intravasal) 100 mg/kg b.w., 40 min, Standardized Mean
  Plasma DP IV activity: 14.15 mU/ml
Iv (intravasal) 100 mg/kg b.w., 40 min, individual animals, 100 mg/kg
  Plasma DP IV activity: 14.91 mU/ml and 23.68 mU/ml and 15.35 mU/ml
Iv (intravasal) 100 mg/kg b.w., 60 min, Mean
  Plasma DP IV activity: 17.25 mU/ml
Iv (intravasal) 100 mg/kg b.w., 60 min, Standardized Mean
  Plasma DP IV activity: 13.42 mU/ml
Iv (intravasal) 100 mg/kg b.w., 60 min, individual animals, 100 mg/kg
  Plasma DP IV activity: 15.79 mU/ml and 22.37 mU/ml and 13.60 mU/ml
Iv (intravasal) 100 mg/kg b.w., 120 min, Mean
  Plasma DP IV activity: 19.44 mU/ml
Iv (intravasal) 100 mg/kg b.w., 120 min, Standardized Mean
  Plasma DP IV activity: 15.61 mU/ml
Iv (intravasal) 100 mg/kg b.w., 120 min, individual animals, 100 mg/kg
  Plasma DP IV activity: 17.11 mU/ml and 25.88 mU/ml and 15.35 mU/ml
[1]
  DP IV-AUC: −673.4 AU · min
  Drop of plasma DP IV activity: 5.19 mU/ml
[2]
  DP IV-AUC: −452.9 AU · min and −1179.3 AU · min and −388.2 AU · min
  Drop of plasma DP IV activity: 5.70 mU/ml and 6.58 mU/ml and 3.29 mU/ml
Oral 100 mg/kg b.w.
  time period over which plasma DP IV decreased slowly: 40 min
Oral 100 mg/kg b.w., 2.5 min, Mean
  Plasma DP IV activity: 17.25 mU/ml
Oral 100 mg/kg b.w., 2.5 min, Standardized Mean
  Plasma DP IV activity: 17.08 mU/ml
Oral 100 mg/kg b.w., 2.5 min, individual animals, 100 mg/kg
  Plasma DP IV activity: 20.61 mU/ml and 9.21 mU/ml and 21.93 mU/ml
Oral 100 mg/kg b.w., 5 min, Mean
  Plasma DP IV activity: 19.15 mU/ml
Oral 100 mg/kg b.w., 5 min, Standardized Mean
  Plasma DP IV activity: 18.98 mU/ml
Oral 100 mg/kg b.w., 5 min, individual animals, 100 mg/kg
  Plasma DP IV activity: 23.68 mU/ml and 13.16 mU/ml and 20.61 mU/ml
Oral 100 mg/kg b.w., 7.5 min, Mean
  Plasma DP IV activity: 17.25 mU/ml
Oral 100 mg/kg b.w., 7.5 min, Standardized Mean
  Plasma DP IV activity: 17.08 mU/ml
Oral 100 mg/kg b.w., 7.5 min, individual animals, 100 mg/kg
  Plasma DP IV activity: 21.05 mU/ml and 12.28 mU/ml and 18.42 mU/ml
Oral 100 mg/kg b.w., 10 min, Mean
  Plasma DP IV activity: 21.64 mU/ml
Oral 100 mg/kg b.w., 10 min, Standardized Mean
  Plasma DP IV activity: 21.46 mU/ml
Oral 100 mg/kg b.w., 10 min, individual animals, 100 mg/kg
  Plasma DP IV activity: 21.93 mU/ml and 25.88 mU/ml and 17.11 mU/ml
Oral 100 mg/kg b.w., 15 min, Mean
  Plasma DP IV activity: 21.05 mU/ml
Oral 100 mg/kg b.w., 15 min, Standardized Mean
  Plasma DP IV activity: 20.88 mU/ml
Oral 100 mg/kg b.w., 15 min, individual animals, 100 mg/kg
  Plasma DP IV activity: 29.39 mU/ml and 15.79 mU/ml and 17.98 mU/ml
Oral 100 mg/kg b.w., 20 min, Mean
  Plasma DP IV activity: 17.98 mU/ml
Oral 100 mg/kg b.w., 20 min, Standardized Mean
  Plasma DP IV activity: 17.81 mU/ml
Oral 100 mg/kg b.w., 20 min, individual animals, 100 mg/kg
  Plasma DP IV activity: 25.00 mU/ml and 10.97 mU/ml
Oral 100 mg/kg b.w., 40 min, Mean
  Plasma DP IV activity: 19.30 mU/ml
Oral 100 mg/kg b.w., 40 min, Standardized Mean
  Plasma DP IV activity: 19.12 mU/ml
Oral 100 mg/kg b.w., 40 min, individual animals, 100 mg/kg
  Plasma DP IV activity: 21.49 mU/ml and 8.77 mU/ml and 27.63 mU/ml
Oral 100 mg/kg b.w., 60 min, Mean
  Plasma DP IV activity: 19.44 mU/ml
Oral 100 mg/kg b.w., 60 min, Standardized Mean
  Plasma DP IV activity: 19.27 mU/ml
Oral 100 mg/kg b.w., 60 min, individual animals, 100 mg/kg
  Plasma DP IV activity: 21.93 mU/ml (2×) and 14.47 mU/ml
Oral 100 mg/kg b.w., 120 min, Mean
  Plasma DP IV activity: 20.91 mU/ml
Oral 100 mg/kg b.w., 120 min, Standardized Mean
  Plasma DP IV activity: 20.73 mU/ml
Oral 100 mg/kg b.w., 120 min, individual animals, 100 mg/kg
  Plasma DP IV activity: 16.23 mU/ml and 23.25 mU/ml (2×)
Oral 100 mg/kg b.w., Mean
  DP IV-AUC: −51.5 AU · min
  Drop of plasma DP IV activity: 10.53 mU/ml
[3]
  DP IV-AUC: 155.2 AU · min and −961.1 AU · min and 651.3 AU · min
  Drop of plasma DP IV activity: 6.58 mU/ml and 23.25 mU/ml and 1.75 mU/ml
Oral 100 mg/kg b.w., p<0.05 vs. intra-vasal
  DP IV-AUC0-120 min: −336±162 mU·min·ml^−1
iv, i.v., 100 mg/kg, read-out: DPIV inhibition at tmax, i.v.
  inhibition at 100 mg/kg: 71%
po, p.o., 100 mg/kg, read-out: DPIV inhibition at tmax, p.o.
  inhibition at 100 mg/kg: 28%
